Results from patent US7863289B2, “Compounds and methods for kinase modulation, and indications therefor” (Plexxikon, Inc., priority 2006, dated 2011).
pIC50: −log10 of the molar value.

Assays:
Format in all cases: biochemical
[1] = molecular target: B-Raf V600E (Homo sapiens, UniProt P15056, V600E); assay: Kinase activity assay, B-Raf V600E; conditions: under the test conditions employed; read-out: activity toward kinase B-Raf V600E, IC50
Description: (§1) Assays for the activity of kinases, including, but not limited to, B-Raf, B-Raf V600E, B-Raf […] and c-Raf-1 are known in the art, for example as described in U.S. patent application Ser. No. 11/473,347 (see Iso, PCT publication WO2007002433), the disclosure of which is hereby incorporated by reference in its entirety.

[2] = molecular target: Kit (Homo sapiens, UniProt P10721); assay: Kinase activity assay, Kit; conditions: under the test conditions employed; read-out: activity toward kinase Kit, IC50
Kit, sequence (P10721 26-976): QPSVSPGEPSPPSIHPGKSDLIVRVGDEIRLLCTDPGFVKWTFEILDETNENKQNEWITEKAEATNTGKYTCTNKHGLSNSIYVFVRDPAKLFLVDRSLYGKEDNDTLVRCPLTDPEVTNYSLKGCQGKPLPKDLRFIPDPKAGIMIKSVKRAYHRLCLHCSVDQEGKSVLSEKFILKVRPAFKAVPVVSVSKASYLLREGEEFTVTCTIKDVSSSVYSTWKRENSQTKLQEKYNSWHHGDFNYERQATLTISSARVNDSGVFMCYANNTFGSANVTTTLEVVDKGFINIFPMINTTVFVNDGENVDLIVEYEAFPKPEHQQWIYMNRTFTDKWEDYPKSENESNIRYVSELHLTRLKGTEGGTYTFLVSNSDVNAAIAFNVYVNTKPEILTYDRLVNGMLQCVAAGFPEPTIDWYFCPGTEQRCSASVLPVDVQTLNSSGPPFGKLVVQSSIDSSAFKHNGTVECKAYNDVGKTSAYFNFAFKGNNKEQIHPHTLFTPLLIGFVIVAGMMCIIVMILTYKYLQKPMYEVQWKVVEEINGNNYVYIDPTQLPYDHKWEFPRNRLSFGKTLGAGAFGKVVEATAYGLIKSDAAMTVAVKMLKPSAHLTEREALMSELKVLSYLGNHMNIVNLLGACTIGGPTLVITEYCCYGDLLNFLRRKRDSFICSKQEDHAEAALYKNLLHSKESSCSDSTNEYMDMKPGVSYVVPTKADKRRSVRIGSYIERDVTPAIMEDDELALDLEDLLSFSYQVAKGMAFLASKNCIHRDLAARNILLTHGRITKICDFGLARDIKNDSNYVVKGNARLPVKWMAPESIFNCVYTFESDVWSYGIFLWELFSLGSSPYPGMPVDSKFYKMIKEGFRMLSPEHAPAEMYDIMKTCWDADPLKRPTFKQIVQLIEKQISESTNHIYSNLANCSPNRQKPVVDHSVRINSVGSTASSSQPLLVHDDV
Description: as §1

[3] = molecular target: c-Raf-1 (Homo sapiens, UniProt P04049); assay: Kinase activity assay, c-Raf-1; conditions: under the test conditions employed; read-out: activity toward kinase c-Raf-1, IC50
c-Raf-1, sequence (P04049 whole entry): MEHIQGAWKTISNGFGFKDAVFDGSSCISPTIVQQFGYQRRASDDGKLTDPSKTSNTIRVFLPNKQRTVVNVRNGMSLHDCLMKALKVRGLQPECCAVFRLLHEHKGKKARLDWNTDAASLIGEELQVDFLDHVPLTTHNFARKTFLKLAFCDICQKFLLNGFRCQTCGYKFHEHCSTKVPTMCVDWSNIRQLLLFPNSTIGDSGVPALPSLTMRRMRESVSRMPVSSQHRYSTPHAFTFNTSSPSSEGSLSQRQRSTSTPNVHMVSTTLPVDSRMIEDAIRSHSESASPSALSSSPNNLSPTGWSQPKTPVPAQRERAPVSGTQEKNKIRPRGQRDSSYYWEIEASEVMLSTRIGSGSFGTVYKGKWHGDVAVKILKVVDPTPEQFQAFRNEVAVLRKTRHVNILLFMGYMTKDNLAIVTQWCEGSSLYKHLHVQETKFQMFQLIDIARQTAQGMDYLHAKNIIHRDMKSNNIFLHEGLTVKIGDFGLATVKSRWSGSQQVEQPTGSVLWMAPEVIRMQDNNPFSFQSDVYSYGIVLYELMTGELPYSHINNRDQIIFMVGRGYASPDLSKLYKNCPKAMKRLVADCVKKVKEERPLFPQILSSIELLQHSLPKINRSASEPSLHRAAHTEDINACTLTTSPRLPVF
Description: as §1

[4] = molecular target: Kdr (Homo sapiens, UniProt P35968); assay: Kinase activity assay, Kdr; conditions: under the test conditions employed; read-out: activity toward kinase Kdr, IC50
Kdr, sequence (P35968 20-1356): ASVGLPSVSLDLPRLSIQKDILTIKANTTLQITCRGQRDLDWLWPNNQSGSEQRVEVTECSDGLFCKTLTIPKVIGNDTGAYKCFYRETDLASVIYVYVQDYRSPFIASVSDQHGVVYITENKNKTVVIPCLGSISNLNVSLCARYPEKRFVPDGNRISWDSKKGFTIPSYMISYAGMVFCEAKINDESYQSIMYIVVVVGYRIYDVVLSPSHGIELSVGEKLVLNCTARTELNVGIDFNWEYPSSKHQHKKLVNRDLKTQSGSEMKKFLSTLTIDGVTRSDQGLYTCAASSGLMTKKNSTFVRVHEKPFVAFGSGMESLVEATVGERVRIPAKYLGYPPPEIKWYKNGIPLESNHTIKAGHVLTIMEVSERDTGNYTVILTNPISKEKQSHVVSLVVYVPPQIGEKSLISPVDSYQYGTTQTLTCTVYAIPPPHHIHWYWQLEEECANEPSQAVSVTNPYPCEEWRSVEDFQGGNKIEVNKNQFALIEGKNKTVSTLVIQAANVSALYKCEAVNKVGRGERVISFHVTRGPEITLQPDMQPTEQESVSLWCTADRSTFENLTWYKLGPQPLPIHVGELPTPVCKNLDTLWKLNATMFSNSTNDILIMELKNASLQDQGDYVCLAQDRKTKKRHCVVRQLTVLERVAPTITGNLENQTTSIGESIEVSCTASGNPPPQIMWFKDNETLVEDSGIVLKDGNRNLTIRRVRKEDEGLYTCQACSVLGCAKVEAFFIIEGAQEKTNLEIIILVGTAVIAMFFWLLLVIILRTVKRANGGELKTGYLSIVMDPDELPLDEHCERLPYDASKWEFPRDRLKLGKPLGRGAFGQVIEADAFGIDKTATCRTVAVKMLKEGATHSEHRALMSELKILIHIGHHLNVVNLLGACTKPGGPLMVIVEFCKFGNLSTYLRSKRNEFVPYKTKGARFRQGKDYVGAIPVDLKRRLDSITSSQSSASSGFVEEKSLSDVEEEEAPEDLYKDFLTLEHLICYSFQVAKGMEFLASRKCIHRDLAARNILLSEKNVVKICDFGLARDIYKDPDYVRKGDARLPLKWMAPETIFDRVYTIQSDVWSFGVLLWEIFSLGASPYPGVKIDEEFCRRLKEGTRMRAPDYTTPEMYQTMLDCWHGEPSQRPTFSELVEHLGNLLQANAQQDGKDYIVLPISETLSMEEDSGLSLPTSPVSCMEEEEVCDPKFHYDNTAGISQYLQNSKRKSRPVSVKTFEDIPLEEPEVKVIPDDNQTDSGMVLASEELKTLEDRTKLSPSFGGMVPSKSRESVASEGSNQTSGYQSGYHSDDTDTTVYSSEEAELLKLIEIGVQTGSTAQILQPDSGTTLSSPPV
Description: as §1

[5] = molecular target: Fms (Homo sapiens, UniProt P07333); assay: Kinase activity assay, Fms; conditions: under the test conditions employed; read-out: activity toward kinase Fms, IC50
Fms, sequence (P07333 20-972): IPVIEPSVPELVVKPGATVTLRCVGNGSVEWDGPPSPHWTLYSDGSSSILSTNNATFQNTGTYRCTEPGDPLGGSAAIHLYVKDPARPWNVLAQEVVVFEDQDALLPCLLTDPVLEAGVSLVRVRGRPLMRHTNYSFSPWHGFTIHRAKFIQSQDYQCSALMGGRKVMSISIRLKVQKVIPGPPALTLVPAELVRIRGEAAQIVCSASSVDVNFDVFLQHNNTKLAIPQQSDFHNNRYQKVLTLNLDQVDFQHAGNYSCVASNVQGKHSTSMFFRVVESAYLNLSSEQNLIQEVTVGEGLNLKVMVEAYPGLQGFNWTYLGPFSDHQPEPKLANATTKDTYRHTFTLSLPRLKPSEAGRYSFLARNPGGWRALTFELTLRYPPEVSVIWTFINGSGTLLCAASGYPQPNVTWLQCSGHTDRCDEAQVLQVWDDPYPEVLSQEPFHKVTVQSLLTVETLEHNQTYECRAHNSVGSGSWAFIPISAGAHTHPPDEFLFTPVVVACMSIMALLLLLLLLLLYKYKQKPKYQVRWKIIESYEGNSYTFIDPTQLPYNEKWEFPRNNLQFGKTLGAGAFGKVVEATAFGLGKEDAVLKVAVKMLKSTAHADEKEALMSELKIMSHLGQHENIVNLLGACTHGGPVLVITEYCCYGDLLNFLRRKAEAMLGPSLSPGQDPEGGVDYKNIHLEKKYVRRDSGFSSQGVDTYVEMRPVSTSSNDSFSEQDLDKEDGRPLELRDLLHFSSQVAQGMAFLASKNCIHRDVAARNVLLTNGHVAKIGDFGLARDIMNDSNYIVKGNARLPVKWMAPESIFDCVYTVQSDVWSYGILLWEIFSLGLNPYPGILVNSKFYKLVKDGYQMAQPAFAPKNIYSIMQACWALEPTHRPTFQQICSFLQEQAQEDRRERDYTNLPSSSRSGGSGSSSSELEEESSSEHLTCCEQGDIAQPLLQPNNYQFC
Description: as §1

[6] = molecular target: B-Raf (Homo sapiens, UniProt P15056); assay: Kinase activity assay, B-Raf; conditions: under the test conditions employed; read-out: activity toward kinase B-Raf, IC50
B-Raf, sequence (P15056 whole entry): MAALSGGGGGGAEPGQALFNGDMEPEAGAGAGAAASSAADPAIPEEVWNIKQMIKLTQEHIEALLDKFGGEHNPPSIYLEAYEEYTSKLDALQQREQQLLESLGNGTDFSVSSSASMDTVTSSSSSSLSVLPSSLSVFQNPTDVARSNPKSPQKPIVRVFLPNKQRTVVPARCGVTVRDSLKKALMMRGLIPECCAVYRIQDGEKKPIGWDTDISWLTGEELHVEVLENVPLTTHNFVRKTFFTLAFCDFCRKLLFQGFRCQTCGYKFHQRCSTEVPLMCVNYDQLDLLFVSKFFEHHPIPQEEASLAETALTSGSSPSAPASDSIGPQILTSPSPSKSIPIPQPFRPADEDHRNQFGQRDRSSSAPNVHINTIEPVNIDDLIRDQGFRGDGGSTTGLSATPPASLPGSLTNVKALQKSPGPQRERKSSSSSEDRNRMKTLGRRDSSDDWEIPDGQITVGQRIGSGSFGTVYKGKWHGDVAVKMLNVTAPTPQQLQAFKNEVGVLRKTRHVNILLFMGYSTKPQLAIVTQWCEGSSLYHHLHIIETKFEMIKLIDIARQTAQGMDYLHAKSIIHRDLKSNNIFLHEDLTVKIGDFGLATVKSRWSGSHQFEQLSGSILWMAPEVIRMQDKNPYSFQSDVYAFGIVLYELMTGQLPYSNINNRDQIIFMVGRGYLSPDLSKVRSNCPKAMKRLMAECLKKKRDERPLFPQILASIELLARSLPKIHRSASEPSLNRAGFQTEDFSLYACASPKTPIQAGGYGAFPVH
Description: as §1

[7] = molecular target: Src (Homo sapiens, UniProt P12931); assay: Kinase activity assay, Src; conditions: under the test conditions employed; read-out: activity toward kinase Src, IC50
Description: as §1

Measured: pIC50

B-Raf V600E, sequence (P15056 whole entry V600E): as the sequence (P15056 whole entry) above, with V600E counted along it

O=C(c1c(F)ccc(NS(=O)(=O)c2csc3ccccc23)c1F)c1c[nH]c2ncc(Cl)cc12 [Compound P-0001, Benzo[b]thiophene-3-sulfonic acid [3-(5-chloro-1H-pyrrolo[2,3-b]pyridine-3-carbonyl)-2,4-difluoro-phenyl]-amide]
not listed: [7]
≥ 5.00: all other assays above

Cc1cc(S(=O)(=O)Nc2ccc(F)c(C(=O)c3c[nH]c4ncc(Cl)cc34)c2F)c(C(F)(F)F)o1 [Compound P-0002, 5-Methyl-2-trifluoromethyl-furan-3-sulfonic acid [3-(5-chloro-1H-pyrrolo[2,3-b]pyridine-3-carbonyl)-2,4-difluoro-phenyl]-amide]
≥ 5.00: all assays above

O=C(O)c1cccc(S(=O)(=O)Nc2ccc(F)c(C(=O)c3c[nH]c4ncc(Cl)cc34)c2F)c1 [Compound P-0004, 3-[3-(5-Chloro-1H-pyrrolo[2,3-b]pyridine-3-carbonyl)-2,4-difluoro-phenylsulfamoyl]-benzoic acid]
≥ 5.00: [7] | [4]

CCCCOc1ccc(S(=O)(=O)Nc2ccc(F)c(C(=O)c3c[nH]c4ncc(Cl)cc34)c2F)cc1 [Compound P-0007, 4-Butoxy-N-[3-(5-chloro-1H-pyrrolo[2,3-b]pyridine-3-carbonyl)-2,4-difluoro-phenyl]-benzenesulfonamide]
≥ 5.00: [1] | [2] | [3] | [6]

O=C(c1c(F)ccc(NS(=O)(=O)c2ccc(-n3cccn3)cc2)c1F)c1c[nH]c2ncc(Cl)cc12 [Compound P-0008, N-[3-(5-Chloro-1H-pyrrolo[2,3-b]pyridine-3-carbonyl)-2,4-difluoro-phenyl]-4-pyrazol-1-yl-benzenesulfonamide]
≥ 5.00: [7] | [2] | [3] | [4]

O=C(c1c(F)ccc(NS(=O)(=O)c2ccc3ncsc3c2)c1F)c1c[nH]c2ncc(Cl)cc12 [Compound P-0009, Benzothiazole-6-sulfonic acid [3-(5-chloro-1H-pyrrolo[2,3-b]pyridine-3-carbonyl)-2,4-difluoro-phenyl]-amide]
not listed: [4]
≥ 5.00: all other assays above

Cn1cc(S(=O)(=O)Nc2ccc(F)c(C(=O)c3c[nH]c4ncc(Cl)cc34)c2F)c(C(F)(F)F)n1 [Compound P-0010, 1-Methyl-3-trifluoromethyl-1H-pyrazole-4-sulfonic acid [3-(5-chloro-1H-pyrrolo[2,3-b]pyridine-3-carbonyl)-2,4-difluoro-phenyl]-amide]
≥ 5.00: [7] | [2] | [4] | [5]

CC(C)Oc1ccc(S(=O)(=O)Nc2ccc(F)c(C(=O)c3c[nH]c4ncc(Cl)cc34)c2F)cc1 [Compound P-0011, N-[3-(5-Chloro-1H-pyrrolo[2,3-b]pyridine-3-carbonyl)-2,4-difluoro-phenyl]-4-isopropoxy-benzenesulfonamide]
not listed: [1]
≥ 5.00: all other assays above

CC(C)(C)c1ccc(S(=O)(=O)Nc2ccc(F)c(C(=O)c3c[nH]c4ncc(Cl)cc34)c2F)cc1 [Compound P-0014, 4-tert-Butyl-N-[3-(5-chloro-1H-pyrrolo[2,3-b]pyridine-3-carbonyl)-2,4-difluoro-phenyl]-benzenesulfonamide]
not listed: [7]
≥ 5.00: all other assays above

CCCc1ccc(S(=O)(=O)Nc2ccc(F)c(C(=O)c3c[nH]c4ncc(Cl)cc34)c2F)cc1 [Compound P-0015, N-[3-(5-Chloro-1H-pyrrolo[2,3-b]pyridine-3-carbonyl)-2,4-difluoro-phenyl]-4-propyl-benzenesulfonamide]
not listed: [4]
≥ 5.00: all other assays above

Cc1ccc2sc(S(=O)(=O)Nc3ccc(F)c(C(=O)c4c[nH]c5ncc(Cl)cc45)c3F)cc2c1 [Compound P-0017, 5-Methyl-benzo[b]thiophene-2-sulfonic acid [3-(5-chloro-1H-pyrrolo[2,3-b]pyridine-3-carbonyl)-2,4-difluoro-phenyl]-amide]
not listed: [4] | [5]
≥ 5.00: all other assays above

COCCOc1cnc2[nH]cc(C(=O)c3c(F)ccc(NS(=O)(=O)c4ccc(C(C)C)cc4)c3F)c2c1 [Compound P-0018, N-{2,4-Difluoro-3-[5-(2-methoxy-ethoxy)-1H-pyrrolo[2,3-b]pyridine-3-carbonyl]-phenyl}-4-isopropyl-benzenesulfonamide]
not listed: [1] | [5]
≥ 5.00: all other assays above

CCCc1ccc(S(=O)(=O)Nc2ccc(F)c(C(=O)c3c[nH]c4ncc(-c5ncc(C)n5C)cc34)c2F)cc1 [Compound P-0027, N-{3-[5-(1,5-Dimethyl-1H-imidazol-2-yl)-1H-pyrrolo[2,3-b]pyridine-3-carbonyl]-2,4-difluoro-phenyl}-4-propyl-benzenesulfonamide]
≥ 5.00: [2] | [4] | [5] | [6]

Cc1ccc(S(=O)(=O)Nc2ccc(F)c(C(=O)c3c[nH]c4ncc(Cl)cc34)c2F)s1 [Compound P-0028, 5-Methyl-thiophene-2-sulfonic acid [3-(5-chloro-1H-pyrrolo[2,3-b]pyridine-3-carbonyl)-2,4-difluoro-phenyl]-amide]
not listed: [3]
≥ 5.00: all other assays above

Cn1ccc(S(=O)(=O)Nc2ccc(F)c(C(=O)c3c[nH]c4ncc(Cl)cc34)c2F)n1 [Compound P-0029, 1-Methyl-1H-pyrazole-3-sulfonic acid [3-(5-chloro-1H-pyrrolo[2,3-b]pyridine-3-carbonyl)-2,4-difluoro-phenyl]-amide]
≥ 5.00: [7] | [1] | [2] | [4]

Cc1cnc2[nH]cc(C(=O)c3c(F)ccc(NS(=O)(=O)c4ccc(C(F)(F)F)cc4)c3F)c2c1 [Compound P-0030, N-[2,4-Difluoro-3-(5-methyl-1H-pyrrolo[2,3-b]pyridine-3-carbonyl)-phenyl]-4-trifluoromethyl-benzenesulfonamide]
≥ 5.00: [1] | [3] | [6]

COC(=O)/C=C/c1cnc2[nH]cc(C(=O)c3c(F)ccc(NS(=O)(=O)c4ccc(C(F)(F)F)cc4)c3F)c2c1 [Compound P-0032, (E)-3-{3-[2,6-Difluoro-3-(4-trifluoromethyl-benzenesulfonylamino)-benzoyl]-1H-pyrrolo[2,3-b]pyridin-5-yl}-acrylic acid methyl ester]
≥ 5.00: [1] | [2] | [4] | [6]

COC(=O)CCc1cnc2[nH]cc(C(=O)c3c(F)ccc(NS(=O)(=O)c4ccc(C(F)(F)F)cc4)c3F)c2c1 [Compound P-0033, 3-{3-[2,6-difluoro-3-(4-trifluoromethyl-benzenesulfonylamino)-benzoyl]-1H-pyrrolo[2,3-b]pyridin-5-yl}-propionic acid methyl ester]
≥ 5.00: [1] | [6]

O=C(O)CCc1cnc2[nH]cc(C(=O)c3c(F)ccc(NS(=O)(=O)c4ccc(C(F)(F)F)cc4)c3F)c2c1 [Compound P-0034, 3-{3-[2,6-difluoro-3-(4-trifluoromethyl-benzenesulfonylamino)-benzoyl]-1H-pyrrolo[2,3-b]pyridin-5-yl}-propionic acid]
≥ 5.00: [1] | [4] | [6]

CCNC(=O)CCc1cnc2[nH]cc(C(=O)c3c(F)ccc(NS(=O)(=O)c4ccc(C(F)(F)F)cc4)c3F)c2c1 [Compound P-0035, 3-{3-[2,6-Difluoro-3-(4-trifluoromethyl-benzenesulfonylamino)-benzoyl]-1H-pyrrolo[2,3-b]pyridin-5-yl}-N-ethyl-propionamide]
≥ 5.00: [1] | [2] | [5] | [6]

COc1cnc2[nH]cc(C(=O)c3c(F)ccc(NS(=O)(=O)c4ccccn4)c3F)c2c1 [Compound P-0036, Pyridine-2-sulfonic acid [2,4-difluoro-3-(5-methoxy-1H-pyrrolo[2,3-b]pyridine-3-carbonyl)-phenyl]-amide]
≥ 5.00: [7] | [6]
